Assay results as given in patent US11168364B2, “Method and system for sequencing nucleic acids” (priority 2016, dated 2021).

Target: T1, Bsu DNA polymerase large fragment / primed template nucleic acid (Bacillus subtilis, UniProt O34996)
T1 construct: 350 U/ml Bsu DNA polymerase large fragment
T1 sequence (O34996 297-880 limits assumed): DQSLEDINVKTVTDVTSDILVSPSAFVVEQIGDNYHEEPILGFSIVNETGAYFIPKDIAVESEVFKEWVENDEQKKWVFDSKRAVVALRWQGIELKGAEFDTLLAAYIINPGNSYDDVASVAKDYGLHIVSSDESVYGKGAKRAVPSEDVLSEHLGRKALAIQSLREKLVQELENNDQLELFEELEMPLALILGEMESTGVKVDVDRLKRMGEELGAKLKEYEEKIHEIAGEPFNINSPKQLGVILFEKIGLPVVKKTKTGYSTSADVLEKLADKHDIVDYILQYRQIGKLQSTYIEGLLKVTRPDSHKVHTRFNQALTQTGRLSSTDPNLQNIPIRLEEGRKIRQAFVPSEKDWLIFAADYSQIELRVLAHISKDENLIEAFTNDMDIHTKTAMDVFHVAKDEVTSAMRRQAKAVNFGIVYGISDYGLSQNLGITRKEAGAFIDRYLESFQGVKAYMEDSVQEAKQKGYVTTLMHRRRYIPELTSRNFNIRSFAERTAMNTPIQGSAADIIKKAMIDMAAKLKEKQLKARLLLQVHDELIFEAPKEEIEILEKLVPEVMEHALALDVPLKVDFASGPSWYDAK
Test: Biolayer interferometry of polymerase binding to immobilized primed template with cognate or non-cognate nucleotide, salt titration (Example 19)
Conditions: for Ternary Complex Signal (Δλ, nm): dCTP (cognate); for Binary Complex Signal (Δλ, nm): dGTP (non-cognate)
Description: A FORTEBIO® (Menlo Park, Calif.) OCTET® instrument employing biolayer interferometry to measure binding reactions at the surface of a fiber optic tip was used in a multiwell plate format to investigate differential stability of binary and ternary complexes. Template strands biotinylated at their 5′-ends were used to immobilize the primed template nucleic acid onto fiber optic tips functionalized with streptavidin (SA) according to standard procedures. […] Tips were first equilibrated in a Tris-buffered solution containing 30 mM Tris-HCl (pH 8.0), and 0.1 mM EDTA before commencing the cycling protocol. Independent binding reactions for the two test nucleotides (i.e., cognate and non-cognate nucleotides) were carried out in the presence of concentrations of NaCl, KCl, or potassium glutamate that varied from 50 mM to 500 mM. […] In all instances, the reaction mixture used during the examination step contained Tris-HCl (pH 8.0), 0.01% Tween-20, 100 μg/ml BSA, 2 mM NiSO4, 350 U/ml Bsu DNA polymerase large fragment; and one of the nucleotides at a concentration of 100 μM (dCTP was used as a cognate nucleotide, and dGTP was used as a non-cognate nucleotide). Following each examination step, tips were exposed to a buffer containing 30 mM Tris-HCl (pH 8.0), 500 mM KCl, 2 mM EDTA and 0.05% Tween-20 for 20 seconds to strip enzyme complexes from the primed template nucleic acid. The stripping step was followed by a 15 second exposure to examination buffer without enzyme, dNTP or divalent cations to regenerate tips for the next cycle of examination. When using a single contacting step to effect binding of polymerase and nucleotide to the primed template nucleic acid, the binding step was 45 seconds long, with binding interactions being monitored continuously. This was accomplished by contacting the primed template nucleic acid with a single solution that included the polymerase and test nucleotide. Results from interferometry monitoring were analyzed to identify formation of ternary complexes (i.e., identifying cognate nucleotide) or binary complexes (i.e., identifying non-cognate nucleotide).

SMILES: N[C@@H](CCC(=O)[O-])C(=O)[O-].[K+].[K+] [Potassium Glutamate, potassium glutamate]
- Fold Enhancement (Ternary/Binary) (Potassium glutamate 50 mM): 1.05
- Ternary Complex Signal (Δλ, nm) (Potassium glutamate 50 mM): 1.67 nm
- Binary Complex Signal (Δλ, nm) (Potassium glutamate 50 mM): 1.59 nm
- Fold Enhancement (Ternary/Binary) (Potassium glutamate 75 mM): 1.01
- Ternary Complex Signal (Δλ, nm) (Potassium glutamate 75 mM): 1.69 nm
- Binary Complex Signal (Δλ, nm) (Potassium glutamate 75 mM): 1.68 nm
- Fold Enhancement (Ternary/Binary) (Potassium glutamate 100 mM): 1.02
- Ternary Complex Signal (Δλ, nm) (Potassium glutamate 100 mM): 1.67 nm
- Binary Complex Signal (Δλ, nm) (Potassium glutamate 100 mM): 1.64 nm
- Fold Enhancement (Ternary/Binary) (Potassium glutamate 125 mM): 1.05
- Ternary Complex Signal (Δλ, nm) (Potassium glutamate 125 mM): 1.65 nm
- Binary Complex Signal (Δλ, nm) (Potassium glutamate 125 mM): 1.57 nm
- Fold Enhancement (Ternary/Binary) (Potassium glutamate 150 mM): 1.07
- Ternary Complex Signal (Δλ, nm) (Potassium glutamate 150 mM): 1.62 nm
- Binary Complex Signal (Δλ, nm) (Potassium glutamate 150 mM): 1.51 nm
- Fold Enhancement (Ternary/Binary) (Potassium glutamate 175 mM): 1.08
- Ternary Complex Signal (Δλ, nm) (Potassium glutamate 175 mM): 1.56 nm
- Binary Complex Signal (Δλ, nm) (Potassium glutamate 175 mM): 1.44 nm
- Fold Enhancement (Ternary/Binary) (Potassium glutamate 200 mM): 1.07
- Ternary Complex Signal (Δλ, nm) (Potassium glutamate 200 mM): 1.51 nm
- Binary Complex Signal (Δλ, nm) (Potassium glutamate 200 mM): 1.40 nm
- Fold Enhancement (Ternary/Binary) (Potassium glutamate 225 mM): 1.11
- Ternary Complex Signal (Δλ, nm) (Potassium glutamate 225 mM): 1.53 nm
- Binary Complex Signal (Δλ, nm) (Potassium glutamate 225 mM): 1.38 nm
- Fold Enhancement (Ternary/Binary) (Potassium glutamate 250 mM): 1.17
- Ternary Complex Signal (Δλ, nm) (Potassium glutamate 250 mM): 1.48 nm
- Binary Complex Signal (Δλ, nm) (Potassium glutamate 250 mM): 1.27 nm
- Fold Enhancement (Ternary/Binary) (Potassium glutamate 275 mM): 1.22
- Ternary Complex Signal (Δλ, nm) (Potassium glutamate 275 mM): 1.52 nm
- Binary Complex Signal (Δλ, nm) (Potassium glutamate 275 mM): 1.24 nm
- Fold Enhancement (Ternary/Binary) (Potassium glutamate 300 mM): 1.23
- Ternary Complex Signal (Δλ, nm) (Potassium glutamate 300 mM): 1.50 nm
- Binary Complex Signal (Δλ, nm) (Potassium glutamate 300 mM): 1.23 nm
- Fold Enhancement (Ternary/Binary) (Potassium glutamate 325 mM): 1.27
- Ternary Complex Signal (Δλ, nm) (Potassium glutamate 325 mM): 1.46 nm
- Binary Complex Signal (Δλ, nm) (Potassium glutamate 325 mM): 1.15 nm
- Fold Enhancement (Ternary/Binary) (Potassium glutamate 350 mM): 1.30
- Ternary Complex Signal (Δλ, nm) (Potassium glutamate 350 mM): 1.39 nm
- Binary Complex Signal (Δλ, nm) (Potassium glutamate 350 mM): 1.07 nm
- Fold Enhancement (Ternary/Binary) (Potassium glutamate 375 mM): 1.32
- Ternary Complex Signal (Δλ, nm) (Potassium glutamate 375 mM): 1.36 nm
- Binary Complex Signal (Δλ, nm) (Potassium glutamate 375 mM): 1.03 nm
- Fold Enhancement (Ternary/Binary) (Potassium glutamate 400 mM): 1.36
- Ternary Complex Signal (Δλ, nm) (Potassium glutamate 400 mM): 1.36 nm
- Binary Complex Signal (Δλ, nm) (Potassium glutamate 400 mM): 0.99 nm
- Fold Enhancement (Ternary/Binary) (Potassium glutamate 425 mM): 1.46
- Ternary Complex Signal (Δλ, nm) (Potassium glutamate 425 mM): 1.33 nm
- Binary Complex Signal (Δλ, nm) (Potassium glutamate 425 mM): 0.91 nm
- Fold Enhancement (Ternary/Binary) (Potassium glutamate 450 mM): 1.52
- Ternary Complex Signal (Δλ, nm) (Potassium glutamate 450 mM): 1.31 nm
- Binary Complex Signal (Δλ, nm) (Potassium glutamate 450 mM): 0.86 nm
- Fold Enhancement (Ternary/Binary) (Potassium glutamate 475 mM): 1.56
- Ternary Complex Signal (Δλ, nm) (Potassium glutamate 475 mM): 1.28 nm
- Binary Complex Signal (Δλ, nm) (Potassium glutamate 475 mM): 0.82 nm
- Fold Enhancement (Ternary/Binary) (Potassium glutamate 500 mM): 1.60
- Ternary Complex Signal (Δλ, nm) (Potassium glutamate 500 mM): 1.28 nm
- Binary Complex Signal (Δλ, nm) (Potassium glutamate 500 mM): 0.80 nm

SMILES: [Cl-].[Na+] [NaCl]
- Fold Enhancement (Ternary/Binary) (NaCl 50 mM): 1.07
- Ternary Complex Signal (Δλ, nm) (NaCl 50 mM): 3.33 nm
- Binary Complex Signal (Δλ, nm) (NaCl 50 mM): 3.11 nm
- Fold Enhancement (Ternary/Binary) (NaCl 75 mM): 1.10
- Ternary Complex Signal (Δλ, nm) (NaCl 75 mM): 2.77 nm
- Binary Complex Signal (Δλ, nm) (NaCl 75 mM): 2.51 nm
- Fold Enhancement (Ternary/Binary) (NaCl 100 mM): 1.07
- Ternary Complex Signal (Δλ, nm) (NaCl 100 mM): 2.34 nm
- Binary Complex Signal (Δλ, nm) (NaCl 100 mM): 2.17 nm
- Fold Enhancement (Ternary/Binary) (NaCl 125 mM): 1.04
- Ternary Complex Signal (Δλ, nm) (NaCl 125 mM): 1.99 nm
- Binary Complex Signal (Δλ, nm) (NaCl 125 mM): 1.91 nm
- Fold Enhancement (Ternary/Binary) (NaCl 150 mM): 1.04
- Ternary Complex Signal (Δλ, nm) (NaCl 150 mM): 1.73 nm
- Binary Complex Signal (Δλ, nm) (NaCl 150 mM): 1.67 nm
- Fold Enhancement (Ternary/Binary) (NaCl 175 mM): 1.11
- Ternary Complex Signal (Δλ, nm) (NaCl 175 mM): 1.51 nm
- Binary Complex Signal (Δλ, nm) (NaCl 175 mM): 1.36 nm
- Fold Enhancement (Ternary/Binary) (NaCl 200 mM): 1.19
- Ternary Complex Signal (Δλ, nm) (NaCl 200 mM): 1.36 nm
- Binary Complex Signal (Δλ, nm) (NaCl 200 mM): 1.15 nm
- Fold Enhancement (Ternary/Binary) (NaCl 225 mM): 1.27
- Ternary Complex Signal (Δλ, nm) (NaCl 225 mM): 1.28 nm
- Binary Complex Signal (Δλ, nm) (NaCl 225 mM): 1.01 nm
- Fold Enhancement (Ternary/Binary) (NaCl 250 mM): 1.47
- Ternary Complex Signal (Δλ, nm) (NaCl 250 mM): 1.18 nm
- Binary Complex Signal (Δλ, nm) (NaCl 250 mM): 0.80 nm
- Fold Enhancement (Ternary/Binary) (NaCl 275 mM): 1.65
- Ternary Complex Signal (Δλ, nm) (NaCl 275 mM): 1.11 nm
- Binary Complex Signal (Δλ, nm) (NaCl 275 mM): 0.67 nm
- Fold Enhancement (Ternary/Binary) (NaCl 300 mM): 1.86
- Ternary Complex Signal (Δλ, nm) (NaCl 300 mM): 0.99 nm
- Binary Complex Signal (Δλ, nm) (NaCl 300 mM): 0.53 nm
- Fold Enhancement (Ternary/Binary) (NaCl 325 mM): 2.76
- Ternary Complex Signal (Δλ, nm) (NaCl 325 mM): 0.93 nm
- Binary Complex Signal (Δλ, nm) (NaCl 325 mM): 0.34 nm
- Fold Enhancement (Ternary/Binary) (NaCl 350 mM): 2.94
- Ternary Complex Signal (Δλ, nm) (NaCl 350 mM): 0.74 nm
- Binary Complex Signal (Δλ, nm) (NaCl 350 mM): 0.25 nm
- Fold Enhancement (Ternary/Binary) (NaCl 375 mM): 3.62
- Ternary Complex Signal (Δλ, nm) (NaCl 375 mM): 0.61 nm
- Binary Complex Signal (Δλ, nm) (NaCl 375 mM): 0.17 nm
- Ternary Complex Signal (Δλ, nm) (NaCl 400 mM): 0.48 nm
- Binary Complex Signal (Δλ, nm) (NaCl 400 mM): 0.08 nm
- Fold Enhancement (Ternary/Binary) (NaCl 425 mM): 5.16
- Ternary Complex Signal (Δλ, nm) (NaCl 425 mM): 0.38 nm
- Binary Complex Signal (Δλ, nm) (NaCl 425 mM): 0.07 nm
- Fold Enhancement (Ternary/Binary) (NaCl 450 mM): 6.65
- Ternary Complex Signal (Δλ, nm) (NaCl 450 mM): 0.26 nm
- Binary Complex Signal (Δλ, nm) (NaCl 450 mM): 0.04 nm
- Fold Enhancement (Ternary/Binary) (NaCl 475 mM): 10.28
- Ternary Complex Signal (Δλ, nm) (NaCl 475 mM): 0.19 nm
- Binary Complex Signal (Δλ, nm) (NaCl 475 mM): 0.02 nm
- Ternary Complex Signal (Δλ, nm) (NaCl 500 mM): 0.21 nm
- Binary Complex Signal (Δλ, nm) (NaCl 500 mM): 0.00 nm
